One data set can be described thus: physchem. It is filed as physicochemical. Particulars: for Fold lower critical concentration compared with AFA: at the highest measured temperature.
The format of data set [1] is physicochemical. Particulars: for Effect of polyphenols (EGCG, TA, RA) on critical soluble concentration: increasing inhibitor ratio, dose-dependent.
The next data set in a line: Dynamic light scattering. It counts as physicochemical. Particulars: pH 6.8, room temperature.
For data set [2] the following is noted: aqueous solution; cited from earlier work.
Setting [3] is: pH 6.8, Water solubility (critical soluble concentration), pure water, room temperature, pH 6.8.
Setting [4] is: water, room temperature, pH 6.8.

The source of these data is paper PMC8063180 (Cell Reports. Physical Science, 2021).

≈ marks a conversion by molar mass, not a printed value. Peptide text beside a SMILES is read from it.

Take `N[C@@H](Cc1ccccc1)C(=O)N[C@@H](Cc1ccccc1)C(=O)N[C@@H](Cc1ccccc1)C(=O)O` [FFF, reference compound] (H-Phe-Phe-Phe-OH): in the data set “physchem” (setting [3]), the solubility – broadly, how much of the substance goes into solution per volume – amounted to 0.5 mM (≈ 0.23 mg/mL).

Turning to `C[C@H](N)C(=O)N[C@@H](C)C(=O)N[C@@H](Cc1ccccc1)C(=O)O` [AAF] (H-Ala-Ala-Phe-OH), in the data set “physchem”, the “Fold lower critical concentration compared with AFA” value is listed as about 6 fold. For the same molecule, the solubility at 2 min in “physchem” (setting [3]) was determined as 105 mM (≈ 32.3 mg/mL). In addition, the “Effect of polyphenols (EGCG, TA, RA) on critical soluble concentration” value in data set [1] was “significant increase”. The “Fold increase of solubility by TA” value in data set [1] (peptide:TA 1:2, versus no inhibitor) is reported as 3 fold. Also, the results for the DLS cluster size result in the data set “Dynamic light scattering” (100 mM in water) and in “Dynamic light scattering” (above 40 mM in water) were “approximately 4,000 nm” and “remained constant”, respectively.

Consider `N[C@@H](Cc1ccccc1)C(=O)N[C@@H](Cc1ccccc1)C(=O)O` [FF, reference compound] (H-Phe-Phe-OH), for which, in the data set “physchem” (setting [3]), the solubility turned out to be 8.1 mM (≈ 2.53 mg/mL). This lies in the millimolar range.

As to `C[C@H](NC(=O)[C@H](C)NC(=O)[C@@H](N)Cc1ccccc1)C(=O)O` [FAA] (H-Phe-Ala-Ala-OH), in “physchem”, the “Fold lower critical concentration compared with AFA” value is about 15 fold. Moreover, in the data set “physchem” (setting [3]), the concentration in solution (solubility) was 42 mM (≈ 12.9 mg/mL). Besides, the “Effect of polyphenols (EGCG, TA, RA) on critical soluble concentration” value in data set [1] was “significant increase”. Besides, the DLS cluster size result in the data set “Dynamic light scattering” (above 40 mM in water) is recorded as “approximately 2000 nm”.

In “physchem” (setting [3]), `NCC(=O)N[C@@H](Cc1ccccc1)C(=O)N[C@@H](Cc1ccccc1)C(=O)O` [GFF, reference compound] (H-Gly-Phe-Phe-OH) had a solubility of 14.5 mM (≈ 5.36 mg/mL).

In the data set “physchem” (setting [3]), `CC(C)C[C@H](N)C(=O)N[C@@H](Cc1ccccc1)C(=O)O` [LF, reference compound] (H-Leu-Phe-OH) yielded a solubility of 19.4 mM (≈ 5.4 mg/mL).

`C[C@H](N)C(=O)N[C@@H](Cc1ccccc1)C(=O)N[C@@H](Cc1ccccc1)C(=O)O` [AFF, reference compound] (H-Ala-Phe-Phe-OH) had a solubility in the data set “physchem” (setting [3]) of 98.3 mM (≈ 37.7 mg/mL). For the same molecule, the “Fold higher solubility compared with GFF” value in the data set “physchem” (setting [4]) was determined as 6 fold.

Consider `CC(C)C[C@H](NC(=O)[C@@H](N)Cc1ccccc1)C(=O)O` [FL, reference compound] (H-Phe-Leu-OH), for which the solubility in the data set “physchem” (setting [3]) was 28.3 mM (≈ 7.88 mg/mL). This counts as millimolar.

Turning to `C[C@H](N)C(=O)N[C@@H](Cc1ccccc1)C(=O)N[C@@H](C)C(=O)O` [AFA, Ala-Phe-Ala] (H-Ala-Phe-Ala-OH), the solubility in “physchem” (Water solubility, water, 70°C) worked out at 702 mM (≈ 216 mg/mL); in “physchem” (Water solubility, water, 90°C), 720 mM (≈ 221 mg/mL); in “physchem” (Water solubility, water, near the boiling point of water), 710 mM (≈ 218 mg/mL); in “physchem” (setting [3]), 672 mM (≈ 207 mg/mL). The molecule further had a Minimal critical concentration in the data set “physchem” (around pH 6–7, room temperature) of 668 mM. In the data set “physchem” (pH approaching the pKa value of either terminus, room temperature), this molecule displayed a Water solubility of 672 mM. Also, the “Fold higher solubility compared with AAF” value in the data set “physchem” (setting [4]) is listed as 6 fold. For the same molecule, in the data set “physchem” (setting [4]), the “Fold higher solubility compared with FAA” value is recorded as 15 fold. Further, the “Effect of inhibitors (EGCG, TA, RA) on solubility” value in data set [1] (molar ratios 1:0.1–1:0.3) is listed as “unable to significantly alter”. The DLS cluster size result is recorded as “persisted” in “Dynamic light scattering” (100 mM in water) and “remained constant” in “Dynamic light scattering” (above 40 mM in water). Also, in data set [2], the Reported critical concentration entry is reported as “up to 10 mM”.

The molecule `O=C(O)[C@H](Cc1ccccc1)NC(=O)[C@H](Cc1ccccc1)NC(=O)[C@@H]1CCCN1` [PFF, reference compound] (H-Pro-Phe-Phe-OH) returned a solubility in “physchem” (setting [3]) of 2.6 mM (≈ 1.06 mg/mL). That is a millimolar value.
